# ChEMBL document CHEMBL6134844, “Development of Next-Generation Antimalarial Acridones with Radical Cure Potential” (J Med Chem, 2025)
# Calls of active or inactive are those of the source. The calls are words filed in the database; no cut-off is given here.
# Assays:
# [1] = Half life in male ICR-CD1 mouse liver at 40 mg/kg, po; type: ADME, organism-based
# [2] = mouse, microsomes, 1 h
# [3] = AUClast in male ICR-CD1 mouse plasma at 40 mg/kg, po; type: ADME, organism-based
# [4] = AUClast in male ICR-CD1 mouse liver at 40 mg/kg, po; type: ADME, organism-based
# [5] = target: Voltage-gated inwardly rectifying potassium channel KCNH2 (Homo sapiens, UniProt Q12809); assay: Inhibition of hERG expressed in HEK293 cells by manual patch clamp assay; type: toxicity, cell-based
# Plasmodium falciparum [6] = assay: Antiplasmodial activity against asexual blood-stage (ABS) MDR Plasmodium falciparum Dd2 infected in human erythrocytes assessed as reduction in fluorescence measured after 72 hrs by Malaria SYBR Green I-based Fluorescence (MSF) assay; type: functional, organism-based; conditions: Dd2, Erythrocyte
# [7] = mouse, microsomes, 1 h; remark: listed apart in the source
# Plasmodium falciparum [8] = assay: Antiplasmodial activity against AART-resistant Plasmodium falciparum DR4 measured after 72 hrs by drug susceptibility test; type: functional, organism-based; conditions: DR4, 72 h
# Plasmodium falciparum [9] = assay: Ex vivo antiplasmodial activity against clinical isolate Plasmodium falciparum isolated from Ugandan measured after 72 hrs by growth inhibition assay; type: functional, organism-based
# [10] = Cmax in male ICR-CD1 mouse plasma at 40 mg/kg, po; type: ADME, organism-based
# Plasmodium falciparum [11] = assay: Synergistic antiplasmodial activity against pan-sensitive Plasmodium falciparum D6 assessed as fractional inhibitory concentration in presence of tafenoquine; type: functional
# Plasmodium yoelii [12] = assay: In vivo antiplasmodial activity against asexual blood-stage (ABS) Plasmodium yoelii MRA-428 infected in 4-day suppression CF1 mouse model assessed as reduction in parasitemia by measuring cured mouse at 60 mg/kg, po single dose treated 24 hrs post infection; type: functional, organism-based
# Plasmodium falciparum [13] = assay: Antiplasmodial activity against Plasmodium falciparum Dd2 measured after 72 hrs by drug susceptibility test; type: functional, organism-based; conditions: Dd2, 72 h
# HepG2 = assay: Cytotoxicity against human HepG2 cells assessed as cell viability measured after 48 hrs by MTT assay; type: functional, cell-based; conditions: HepG2, 48 h
# Plasmodium falciparum [14] = assay: Synergistic antiplasmodial activity against multi-drug resistant Plasmodium falciparum Tm90-C2B assessed as fractional inhibitory concentration in presence of tafenoquine; type: functional
# Plasmodium berghei = assay: In vivo antiplasmodial activity against luciferase expressing liver stage Plasmodium berghei ANKA MRA-868 sporozoites infected in Albino C57BL/6 mouse model assessed as cured mouse at 40 mg/kg, po daily measured after 31 days; type: functional, organism-based; conditions: time 31.0 day
# [15] = Selectivity index, ratio of CC50 for Macaca mulatta hepatocytes to IC50 for antiplasmodial activity against schizont Plasmodium cynomolgi B strain infected in Macaca mulatta hepatocytes incubated with sporozoite containing salivary gland homogenate obtained from dissected Anopheles dirus mosquitoes (infected with Plasmodium cynomolgi B strain) treatment started on day 4 post infection and continued daily for 4 days into fresh changed media until day 8 assessed as Liver stage (LS) activity by measuring prophylactic mode by immunofluorescent staining analysis; type: toxicity, cell-based; conditions: rhesus monkey, read-out: Selectivity Index
# Plasmodium falciparum [16] = assay: Antiplasmodial activity against AART-resistant Plasmodium falciparum DR1 measured after 72 hrs by drug susceptibility test; type: functional, organism-based; conditions: DR1, 72 h
# [17] = AUC(0 to infinity) in male ICR-CD1 mouse plasma at 40 mg/kg, po; type: ADME, organism-based; conditions: in vivo
# Plasmodium yoelii [18] = assay: In vivo antiplasmodial activity against asexual blood-stage (ABS) Plasmodium yoelii MRA-428 infected in 4-day suppression CF1 mouse model assessed as reduction in parasitemia by measuring protection at 10 mg/kg, po treated 24 hrs post infection daily for 4 days relative to control; type: functional; set-up: scale not given: the % may be the effect or the level left
# [19] = AUCextrap in male ICR-CD1 mouse plasma at 40 mg/kg, po; type: ADME, organism-based
# Plasmodium yoelii [20] = assay: In vivo antiplasmodial activity against asexual blood-stage (ABS) Plasmodium yoelii MRA-428 infected in 4-day suppression CF1 mouse model assessed as reduction in parasitemia treated 24 hrs post infection daily measured on day 4; type: functional
# [21] = Half life in male ICR-CD1 mouse plasma at 40 mg/kg, po; type: ADME, organism-based
# [22] = Apparent oral clearance in male ICR-CD1 mouse plasma at 40 mg/kg, po; type: ADME, organism-based; conditions: in vivo
# Sequence of Voltage-gated inwardly rectifying potassium channel KCNH2 (Q12809 whole entry): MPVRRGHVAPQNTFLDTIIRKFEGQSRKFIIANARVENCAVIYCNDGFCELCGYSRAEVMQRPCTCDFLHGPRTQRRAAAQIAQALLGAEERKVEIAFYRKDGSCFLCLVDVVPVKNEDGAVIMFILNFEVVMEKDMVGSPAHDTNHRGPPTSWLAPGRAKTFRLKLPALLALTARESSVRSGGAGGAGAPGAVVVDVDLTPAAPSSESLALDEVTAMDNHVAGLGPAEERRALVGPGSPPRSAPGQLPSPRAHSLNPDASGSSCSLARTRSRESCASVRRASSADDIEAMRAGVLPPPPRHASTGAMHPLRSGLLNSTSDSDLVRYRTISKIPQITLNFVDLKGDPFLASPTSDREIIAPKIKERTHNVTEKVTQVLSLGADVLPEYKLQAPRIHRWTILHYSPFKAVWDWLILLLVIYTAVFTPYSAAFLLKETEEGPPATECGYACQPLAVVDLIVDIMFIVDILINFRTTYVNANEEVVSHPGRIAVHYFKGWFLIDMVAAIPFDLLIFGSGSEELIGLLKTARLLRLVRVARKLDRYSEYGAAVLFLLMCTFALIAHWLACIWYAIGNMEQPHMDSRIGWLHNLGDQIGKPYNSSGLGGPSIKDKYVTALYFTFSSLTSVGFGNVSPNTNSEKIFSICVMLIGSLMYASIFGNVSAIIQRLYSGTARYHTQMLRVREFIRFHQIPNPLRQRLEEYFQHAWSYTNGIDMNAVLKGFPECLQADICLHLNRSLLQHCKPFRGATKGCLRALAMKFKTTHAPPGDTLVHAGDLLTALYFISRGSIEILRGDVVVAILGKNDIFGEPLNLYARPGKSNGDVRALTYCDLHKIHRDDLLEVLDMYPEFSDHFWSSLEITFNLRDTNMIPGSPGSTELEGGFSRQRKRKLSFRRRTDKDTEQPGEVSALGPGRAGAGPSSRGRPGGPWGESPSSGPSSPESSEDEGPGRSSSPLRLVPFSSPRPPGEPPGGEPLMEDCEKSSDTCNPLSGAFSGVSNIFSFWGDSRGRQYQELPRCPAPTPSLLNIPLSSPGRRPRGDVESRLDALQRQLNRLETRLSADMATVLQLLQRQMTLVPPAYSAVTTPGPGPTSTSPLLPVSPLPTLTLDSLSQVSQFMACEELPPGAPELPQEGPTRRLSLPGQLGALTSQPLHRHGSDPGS
SMILES,half-life [1] [h],CLH [2] [µL/min/mg],AUC(0-t) [3] [ng·h/mL],AUC(0-t) [4] [ng·h/mL],IC50 (Plasmodium falciparum [6]) [nM],Cmax [10] [ng/mL],Activity (Plasmodium yoelii [12]),IC50 (HepG2) [nM],selectivity ratio at 96 h [15],other results
O=c1c2c([nH]c3cc(Oc4ccc(OC(F)(F)F)cc4)ccc13)CCCC2,2.84,117,472,32900,0.253,83,Active,99400,4.69,IC50 [5]: > 10000 nM; t1/2 [7]: 0.197 h; IC50 (Plasmodium falciparum [8]): 5.35 nM; IC50 (Plasmodium falciparum [9]): 10.5 nM; FIC (Plasmodium falciparum [11]): 0.81; IC50 (Plasmodium falciparum [13]): 2.06 nM; FIC (Plasmodium falciparum [14]): 0.76; Activity (Plasmodium berghei): Active; Out Of 5 - 5 Mouse Cured; IC50 (Plasmodium falciparum [16]): 5.26 nM
O=c1c2c([nH]c3cc(Oc4ccc(OC(F)(F)F)cc4)c(F)cc13)CCCC2,4.3,74.9,167,5470,0.268,42.1,Active,> 200000,31.1,AUC [17]: 219 ng·h/mL; Activity (Plasmodium yoelii [18]): 100%; AUC [19]: 23.7%; ED50 (Plasmodium yoelii [20]): 1.5 mg/kg; ED90 (Plasmodium yoelii [20]): 4.7 mg/kg; half-life [21]: 3.89 h; CL/F [22]: 87.98 mL/min/kg
